Data set [1] in a line: antioxidant effect on fish-meal samples, Warburg apparatus. To be noted: 40 g. of fish meal + 0.04 g. of antioxidant; for Oxygen Uptake (decrease of O2 pressure, mmHg): 29° C., control 19.5; for Peroxide Number (calculated for 1 g. of fish meal): treated with oxygen, control 7.83. How it is done:
The antioxidant effect of the new substances shown in foodstuffs and nutriments was investigated on fish-meal samples. […] In these experiments the oxygen uptake of fish-meal samples containing the various antioxidants was determined in a Warburg apparatus at 29° C., and the results were compared with those measured on samples containing no antioxidant. The peroxide number of samples treated with oxygen was also determined.

Data set [2] concerns encephalomalacia of poultries. To be noted: versus EMQ; cited from earlier work.
The conditions of data set [3]: cited from earlier work.
Data set [4] in a line: LD50 (Korber method, modified by Cornfield). The conditions noted are these: in vivo. An excerpt:
The LD50 values of BHT and EMQ are, on the other hand, the following -- measured according to the Korber method, modified by Cornfield: […]

The next data set has as its system animals. To be noted: longer period, dose of 0.56 g./kg.; cited from earlier work.
For data set [5], the system named is rats. The conditions noted are these: 14 days, 0.50 g./kg.; cited from earlier work.
Another data set in a line: solubility. It is filed as physicochemical.
For data set [6], the system named is rats. The conditions noted are these: rat, in vivo. An excerpt:
(§1) Since the novel compounds are completely nontoxic, they can be used with great advantage in animal husbandry and in the food industry, as well as in therapy. On the basis of the investigations carried out on the acute and chronic toxicity of these new active agents, it can be stated that they are completely free of the disadvantages of the hitherto-known antioxidants mentioned above, first of all as regards their use in therapy.

The subject of data set [7] is rats. Description: continuous administration of XAX for three weeks / 90 days. The format is in vivo.
From the text: as §1

The test system of another data set is serum cholesterol level. Description: serum cholesterol of cholesterol-treated rabbits. It is filed as in vivo. The conditions noted are these: 1 g. of cholesterol per day, 0.06 g./kg. XAX daily for 70 or 105 days. The procedure: Due to this fact they can also be used for the prophylaxis and treatment of arteriosclerois. This effect of the new substances was investigated on rabbits treated with 1 g. of cholesterol per day. The animals were treated for 70 or 105 days with daily doses of 0.06 g./kg. of XAX. […] Using the hitherto-known antioxidants, this very favorable and important effect could not be reached at all.

The subject of the next data set is malignant tumors. Description: appearance of malignant tumors in animals irradiated with minimum doses for a long period. It is filed as in vivo. To be noted: minimum irradiation doses for a long period, versus irradiated controls without XAX. An excerpt:
Another important and unexpected property of the new substances is that they exert radiosensibilizing effect. […] On the basis of this property, the new compounds can also be used for the potentiating of the effect of irradiation therapy.

Where a name gives a salt, the structure may show the parent alone.

With `Cc1cc(C(C)(C)C)c(O)c(C(C)(C)C)c1` [BHT], in data set [1], the “Oxygen Uptake (decrease of O2 pressure, mmHg)” value is given as 16.5 mmHg and the “Peroxide Number (calculated for 1 g. of fish meal)” value is 3.42. Further, the “activity in encephalomalacia of poultries” value in data set [2] was “far lower activity than EMQ”. Also, in data set [3] (aftereffect), the “anophthalmia (teratogeneous effect)” value is given as “the appearance of anophthalmia was observed”. Also, in data set [3] (in vivo), the “cholesterol-synthesis in the liver and endogenous epoxidation” value was “the cholesterol-synthesis in the liver as well as the endogenous epoxidation increases”; the “endogenous production of fatty acids and β-oxidation” value was “stimulates the endogenous production of fatty acids and β-oxidation”; the gestation period entry was “increases the gestation period”.

For orientation: LD50 means the dose at which mortality reaches 50%. Read a low LD50 as a more toxic substance. `CCOc1ccc2c(c1)C(C)=CC(C)(C)N2` [EMQ, 6-ethoxy-2,2,4-trimethyl-1,2-dihydroquinoline] showed an LD50 in data set [4] of 2230 ± 300 mg/kg. In data set [1], the “Oxygen Uptake (decrease of O2 pressure, mmHg)” value is on record as 23.5 mmHg and the “Peroxide Number (calculated for 1 g. of fish meal)” value was 2.87. In addition, in the data set with animals, the appetite entry is given as “may cause appetite lowering” and the gain in weight result is reported as “lowers the gain in weight”. Also, in the data set on rats [5], the “appetite of the animals” value was “the appetite of the animals was lowered” and the “size of the liver” value is “an increase in size of the liver was observed”.

Take `CC1=CC(C)(C)Nc2ccc(Cc3ccc4c(c3)C(C)=CC(C)(C)N4)cc21` [Example 8, bis-(2,2,4-trimethyl-1,2,-dihydroquinolyl-6)-methane]: in the data set “solubility”, the “solubility in water and alcohol” value was “well soluble in water and alcohol”.

With `CC1=CC(C)(C)Nc2ccc(Cc3ccc4c(c3)C(C)=CC(C)(C)N4)cc21` [Example 9, bis-(2,2,4-trimethyl-1,2-dihydroquinolyl-6)-methane], the “solubility in water and alcohol” value in “solubility” was “soluble in water and alcohol”.

For the compound `CC1=CC(C)(C)Nc2ccc(Cc3ccc4c(c3)C(C)=CC(C)(C)N4)cc21` [XAX, bis-(2,2,4-trimethyl-1,2-dihydroquinolyl-6)-methane], the toxic symptoms entry in the data set on rats [6] is listed as “no toxic symptoms”. Besides, the “damaging of tissues or cells” value in the data set with rats [7] (daily doses of 0.25 mg./kg., three weeks) is on record as “no damaging of tissues or cells could be observed”. Also, the “weight gain and blood picture” value with rats [7] (rats, 90 days, same dose) is recorded as “Neither the weight gain nor the blood picture of the animals was harmfully affected”. For the same compound, the “weight gain of some organs” value in the data set with rats [7] (rats, 90 days, same dose, versus untreated animals) is recorded as “no excessive weight gain of some organs of the animals could be observed”. Further, in the data set on rats [7] (rats, same dose (0.25 mg./kg. daily), 90 days), the harmful effects entry is recorded as “No harmful effects could be observed”. In data set [1], the “Oxygen Uptake (decrease of O2 pressure, mmHg)” value worked out at 11.5 mmHg and the “Peroxide Number (calculated for 1 g. of fish meal)” value was 1.54. Also, in the data set with serum cholesterol level, the “cholesterol level of the blood” value is “the cholesterol level of the blood decreased to a great extent”. Moreover, the “appearance of malignant tumors” value with malignant tumors is “could be suppressed”.

With `CC1=CC(C)(C)Nc2ccc(Cc3ccc4c(c3)C(C)=CC(C)(C)N4)cc21` [sulfuric acid salt of XAX], the “solubility in water and alcohol” value in the data set “solubility” is “soluble in water and alcohol”.

The values are drawn from patent US4025631A, “Dihydroquinoline derivatives of antioxidant activity” (priority 1971, dated 1977).
